In patent publication US8461183B2, “PPAR agonist compounds, preparation and uses” (Genfit, priority 2008, dated 2013):

What was measured:
Assay type in all cases: cell-based
hPPARα = biological target: T1, hPPARα (Homo sapiens, UniProt Q07869); assay: Gal4-hPPARα chimera transactivation (luciferase) in COS-7 cells; conditions: for EC50: luciferase, read-out: PPARα EC50; for Emax: read-out: PPARα TOP % (maximum activation)
T1 construct: corresponding to the DEF domains (structural elements of the promoter of the PPARs: D=hinge, EF=ligand fixation domain and AF2 fixation site); expressed in transfected cells; host or cells: COS-7 (monkey kidney fibroblasts)
T1 sequence (Q07869 239-466 limits assumed): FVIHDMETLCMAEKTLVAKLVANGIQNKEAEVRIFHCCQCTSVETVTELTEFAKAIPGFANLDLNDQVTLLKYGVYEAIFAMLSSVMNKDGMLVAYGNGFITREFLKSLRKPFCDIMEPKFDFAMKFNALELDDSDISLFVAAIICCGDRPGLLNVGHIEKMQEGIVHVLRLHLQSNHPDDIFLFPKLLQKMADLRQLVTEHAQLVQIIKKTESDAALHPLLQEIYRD
Method: (§1) Activation of PPARs is evaluated in vitro on a line of monkey kidney fibroblasts (COS-7) by measuring the transcriptional activity of chimeras consisting of the DNA binding domain of Gal4 transcription factor of yeast and of the ligand binding domain of the various PPARs of human origin (hPPAR).
(§2) The COS-7 cells are from ATCC and are cultivated in DMEM medium supplemented with 10% (vol/vol) of fetal calf serum, 1% of penicillin/streptomycin (Biochrom, AG), 1% of amino acids (Gibco) and 1% of sodium pyruvate (Gibco). The cells are incubated at 37° C. in a humid atmosphere containing 5% CO2.
(§3) The plasmids Gal4(RE)_TkpGL3, pGal4-hPPARα, pGal4-hPPARγ, pGal4-hPPARδ and pGal4-φ are described in the literature (Raspe E et al., 1999). The constructs pGal4-hPPARα, pGal4-hPPARγ and pGal4-hPPARδ were obtained by cloning, into the pGal4-φ vector, DNA fragments amplified by PCR corresponding to the DEF domains (structural elements of the promoter of the PPARs: D=hinge, EF=ligand fixation domain and AF2 fixation site) of the human nuclear receptors PPAα, PPARγ and PPARδ.
(§4) The adherent COS-7 cells are transfected with 40 μg of DNA per 225 cm^2 flask, with a pGal4-hPPAR/Gal4(RE)_TkpGL3 ratio of 1/10, in the presence of 10% of fetal calf serum. The cells are then detached and seeded in the absence of serum in 384-well plates (2×10^4 cells/well) then incubated for 4 hours at 37° C. The compounds are then diluted in a 96-well plate and then transferred to the 384-well plate. Activation with the test compounds is effected for a further 24 hours at 37° C. in the presence of 1% of synthetic serum Ultroser™ (Biosepra). These last 2 stages are automated by means of a Genesis Freedom 200™ station (Tecan). At the end of the experiment, the cells are lysed and the luciferase activity is determined using the Steady-Lite™ HTS (Perkin Elmer) according to the supplier's recommendations.
The test data are summarized in Table 8-1 below, which presents, for each compound, the values of maximum activation (TOP %) and the EC50 values measured for each isoform of PPAR. The values of maximum activation are expressed in percentages relative to the maximum activations obtained with reference agonists: fenofibric acid for PPARα, rosiglitazone for PPARγ and 2-methyl-4-((4-methyl-2-(4-trifluoromethylphenyl)-1,3-thiazol-5-yl)-methylsulfanyl)phenoxyacetic acid (also called GW501516) for PPARδ.

hPPARγ = biological target: T2, hPPARγ (Homo sapiens, UniProt P37231); assay: Gal4-hPPARγ chimera transactivation (luciferase) in COS-7 cells; conditions: 24 hours; for EC50: luciferase, read-out: PPARγ EC50; for Emax: read-out: PPARγ TOP % (maximum activation)
T2 construct: corresponding to the DEF domains (structural elements of the promoter of the PPARs: D=hinge, EF=ligand fixation domain and AF2 fixation site); expressed in transfected cells; host or cells: COS-7 (monkey kidney fibroblasts)
T2 sequence (P37231 238-503 limits assumed): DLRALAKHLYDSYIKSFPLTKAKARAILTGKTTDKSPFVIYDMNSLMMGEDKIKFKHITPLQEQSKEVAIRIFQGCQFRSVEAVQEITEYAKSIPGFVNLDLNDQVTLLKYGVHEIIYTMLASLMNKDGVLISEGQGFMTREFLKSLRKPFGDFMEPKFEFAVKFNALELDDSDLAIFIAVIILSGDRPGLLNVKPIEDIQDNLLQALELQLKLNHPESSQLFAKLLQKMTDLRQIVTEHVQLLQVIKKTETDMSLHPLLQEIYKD
Method: as §1, §2, §3, §4
(§5) The test data are summarized in Table 8-1 below, which presents, for each compound, the values of maximum activation (TOP %) and the EC50 values measured for each isoform of PPAR.

hPPARδ = biological target: T3, hPPARδ (Homo sapiens, UniProt Q03181); assay: Gal4-hPPARδ chimera transactivation (luciferase) in COS-7 cells; conditions: COS-7 cells, Gal4-hPPARδ, 24 hours; for EC50: luciferase, read-out: PPARδ EC50; for Emax: read-out: PPARδ TOP % (maximum activation)
T3 construct: corresponding to the DEF domains (structural elements of the promoter of the PPARs: D=hinge, EF=ligand fixation domain and AF2 fixation site); expressed in transfected cells; host or cells: COS-7 (monkey kidney fibroblasts)
T3 sequence (Q03181 211-439 limits assumed): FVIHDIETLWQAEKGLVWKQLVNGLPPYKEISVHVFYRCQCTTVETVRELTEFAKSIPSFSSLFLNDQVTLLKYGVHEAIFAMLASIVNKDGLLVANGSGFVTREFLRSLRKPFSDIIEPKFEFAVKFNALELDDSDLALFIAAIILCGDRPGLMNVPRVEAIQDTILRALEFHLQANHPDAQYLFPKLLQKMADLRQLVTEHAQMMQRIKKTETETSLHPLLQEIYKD
Method: as §1, §2, §3, §4, §5

[1] = COS-7 cells, Gal4-hPPARα, 24 hours
[2] = relative to maximum activation obtained with fenofibric acid, COS-7 cells, Gal4-hPPARα, 24 hours
[3] = relative to maximum activation obtained with rosiglitazone
[4] = relative to maximum activation obtained with GW501516

Row | Compound | EC50 (hPPARα; [1]) [µM] | selectivity among hPPAR isoforms (hPPARα) (hPPARα; Gal4-hPPAR chimeras, COS-7) | Emax (hPPARα; [2]) [%] | EC50 (hPPARγ) [µM] | Emax (hPPARγ; [3]) [%] | EC50 (hPPARδ) [µM] | Emax (hPPARδ; [4]) [%] | PPARα TOP % (maximum activation) (hPPARα; [2]) [%] | PPARγ TOP % (maximum activation) (hPPARγ; [3]) [%] | PPARδ TOP % (maximum activation) (hPPARδ; [4]) [%]
1 | COc1nc(-c2ccccc2)ccc1CNc1ccc(SC(C)(C)C(=O)O)cc1 [Cpd 11, 2-(4-(((2-methoxy-6-phenylpyridin-3-yl)methyl)amino)phenylthio)-2-methyl-propanoic acid] | 0.022 | high selectivity for hPPARα | 86.2 | 2.45 | 54.5 | 3 | 85.7 |  |  | 
2 | CC(C)Oc1nc(-c2ccccc2)ccc1CNc1ccc(CCC(=O)O)cc1 [Cpd 54, 3-(4-(((2-isopropyloxy-6-phenylpyridin-3-yl)methyl)amino)phenyl)propanoic acid] | 7.97 |  | 34.5 | 4.85 | 42.2 | 3.2 | 92.1 |  |  | 
3 | COc1nc(-c2ccccc2)ccc1CNc1ccc(SC(C(=O)O)c2ccccc2)cc1 (stereo not drawn) [Cpd 32, 2-(4-(((2-methoxy-6-phenylpyridin-3-yl)methyl)amino)phenylthio)-2-phenyl-acid] | 1.48 |  | 70.4 | 2.51 | 66.6 | 22.8 | 3.59 |  |  | 
4 | COc1ncc(-c2ccccc2)cc1CNc1ccc(SCC(=O)O)cc1 [Cpd 26, 2-(4-(((2-methoxy-5-phenylpyridin-3-yl)methyl)amino)phenylthio)ethanoic acid] | 20.9 |  | 67 | 44.1 | 208 | 31.1 | 138 |  |  | 
5 | CC(C)(C)Oc1nc(-c2ccccc2)ccc1COc1ccc(OC(C)(C)C(=O)O)cc1 [Cpd 6, 2-(4-((2-tert-butyloxy-6-phenylpyridin-3-yl)methoxy)phenoxy)-2-methyl-propanoic acid] | 5.43 |  | 30.3 | 11.8 | 17.3 | 0.489 | 70.7 |  |  | 
6 | 3-(4-(((2-methoxy-6-furylpyridin-3-yl)methyl)amino)phenyl)propanoic acid [Cpd 31] | 2.49 |  |  | 3.36 |  | 16.3 |  | 49.52 | 62.35 | 86.72
7 | COc1nc(-c2ccccc2)ccc1CNc1ccc(OC(C)C(=O)O)cc1 (stereo not drawn) [Cpd 5, 2-(4-(((2-methoxy-6-phenylpyridin-3yl)methyl)amino)phenoxy)propanoic acid] | 0.389 |  | 67.5 | 3.72 | 57.3 | 6.17 | 71 |  |  | 
8 | CC(C)(C)Oc1nc(-c2ccccc2)ccc1CNc1ccc(OC(C)(C)C(=O)O)cc1 [Cpd 9, 2-(4-(((2-tert-butyloxy-6-phenylpyridin-3-yl)methyl)amino)phenoxy)-2-methyl-propanoic acid] | 4.5 |  | 33.7 | 6.09 | 23.9 | 0.464 | 74.2 |  |  | 
9 | COc1ncc(-c2ccc(Cl)cc2)cc1CNc1ccc(CCC(=O)O)cc1 [Cpd 49, 3-(4-(((5-(4-chlorophenyl)-2-methoxypyridin-3-yl)methyl)amino)phenyl)-propanoic acid] | 3.62 |  | 51.1 | 4.04 | 73.2 | 0.408 | 123 |  |  | 
10 | COc1nc(-c2cccc(C(F)(F)F)c2)ccc1CNc1ccc(CCC(=O)O)cc1 [Cpd 40, 3-(4-(((2-methoxy-6-(3-(trifluoromethyl)phenyl)pyridin-3-yl)methyl)amino)-phenyl)propanoic acid] | 0.165 |  | 66.7 | 0.955 | 87.2 | 0.08 | 107 |  |  | 
11 | COc1nc(-c2ccccc2)ccc1CNc1ccc(OC(C)(C)C(=O)O)cc1 [Cpd 12, 2-(4-(((2-methoxy-6-phenylpyridin-3-yl)methyl)amino)phenoxy)-2-methyl-propanoic acid] | 0.195 |  | 78.1 | 2.64 | 44.9 | 2.36 | 84.2 |  |  | 
12 | CC#CC(CC(=O)O)c1ccc(OCc2cc(-c3ccccc3)cnc2OC)cc1 (stereo not drawn) [Cpd 52, 3-(4-((2-methoxy-5-phenylpyridin-3-yl)methoxy)phenyl)hex-4-ynoic acid] | 13.7 |  | 34.3 | 2.76 | 54.8 | 19.8 | 16.1 |  |  | 
13 | COc1nc(-c2ccccc2)c(Br)cc1CNc1ccc(SCC(=O)O)cc1 [Cpd 29, 2-(4-(((2-methoxy-5-bromo-6-phenylpyridin-3-yl)methyl)amino)phenylthio)-ethanoic acid] | 3.85 |  | 59.3 | 8.43 | 57.7 | 10.1 | 85.6 |  |  | 
14 | COc1ncc(-c2cccc(C(F)(F)F)c2)cc1CNc1ccc(CCC(=O)O)cc1 [Cpd 47, 3-(4-(((2-methoxy-5-(3-(trifluoromethyl)phenyl)pyridin-3-yl)methyl)amino)-phenyl)propanoic acid] | 1.9 |  | 58.6 | 1.08 | 85 | 1.91 | 79.2 |  |  | 
15 | COc1nc(-c2ccccc2)ccc1CNc1cccc(OC(C)(C)C(=O)O)c1 [Cpd 13, 2-(3-(((2-methoxy-6-phenylpyridin-3-yl)methyl)amino)phenoxy)-2-methyl-propanoic acid] | 1.43 |  | 61.9 | 6.93 | 24.1 | 3.22 | 96.1 |  |  | 
16 | CCSc1nc(-c2ccccc2)ccc1CNc1ccc(CCC(=O)O)cc1 [Cpd 38, 3-(4-(((2-(ethylthio)-6-phenylpyridin-3-yl)methyl)amino)phenyl)propanoic acid] | 10.8 |  | 36.2 | 7.6 | 45.4 | 6.78 | 64.5 |  |  | 
17 | COc1nc(-c2ccc(C(F)(F)F)cc2)ccc1CNc1ccc(SC(C)(C)C(=O)O)cc1 [Cpd 22, 2-(4-(((2-methoxy-6-(4-(trifluoromethyl)phenyl)pyridin-3-yl)methyl)amino)-phenylthio)-2-methylpropanoic acid] |  |  | 75.9 | 1.05 | 88.9 | 1.15 | 102 |  |  | 
